Measured values as given in article PMC10824666 (Nature Cancer, 2023).
Read-outs that look alike come from different tables or passages of the source. Blank lines part the entries; values can stand above or below the compound they belong to.

How the values were obtained:
Assay in all cases: biochemical
Set-up in all cases: Eurofins DiscoverX kinase panel, competitive binding assay at 1 uM, percent of DMSO control
Conditions in all cases: competitive binding, percent of DMSO control
[1] = biological target: CAMK2D (Homo sapiens, UniProt Q13557)
Procedure, shortened: (§1)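 Single-point profiling at 1 µM compound in a competition-binding format against 96 kinases, read out as POC relative to control; n = 1.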

[2] = biological target: T1, p38 α (Homo sapiens, UniProt Q16539)
T1 construct: gene MAPK14
Procedure, shortened: as §1

[3] = biological target: T2, CHK1 (Homo sapiens, UniProt O14757)
T2 construct: gene CHEK1
T2 sequence (O14757 1-476): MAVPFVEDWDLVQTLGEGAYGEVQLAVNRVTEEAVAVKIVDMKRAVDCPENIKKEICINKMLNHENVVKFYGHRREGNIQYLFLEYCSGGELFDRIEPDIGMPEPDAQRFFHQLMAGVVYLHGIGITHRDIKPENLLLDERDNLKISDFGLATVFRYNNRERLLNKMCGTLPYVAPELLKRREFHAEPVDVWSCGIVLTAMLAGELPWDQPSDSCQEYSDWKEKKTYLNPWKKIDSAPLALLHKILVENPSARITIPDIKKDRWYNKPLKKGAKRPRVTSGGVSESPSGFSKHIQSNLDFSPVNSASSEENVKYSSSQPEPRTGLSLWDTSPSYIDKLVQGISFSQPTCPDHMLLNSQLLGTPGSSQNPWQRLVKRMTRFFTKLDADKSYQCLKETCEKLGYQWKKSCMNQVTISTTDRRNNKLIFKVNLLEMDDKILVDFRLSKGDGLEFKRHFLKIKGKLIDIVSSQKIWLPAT
Procedure, shortened: as §1

[4] = biological target: CLK4 (Homo sapiens, UniProt Q9HAZ1)
Procedure, shortened: as §1

[5] = biological target: HIPK1 (Homo sapiens, UniProt Q86Z02)
Procedure, shortened: as §1

[6] = biological target: DDR1 (Homo sapiens, UniProt Q08345)
Procedure, shortened: as §1

[7] = biological target: MAPKAPK2 (Homo sapiens, UniProt P49137)
Procedure, shortened: as §1

[8] = biological target: T3, Tyk-2 (Homo sapiens, UniProt P29597)
T3 construct: gene TYK2
Procedure, shortened: as §1

[9] = read-out: Kinome Profiling performed by Eurofins DiscoverX / AM-1882, 1.0 µM / POC
[10] = read-out: Kinome Profiling performed by Eurofins DiscoverX / AM-5308, 1.0 µM / POC
[11] = read-out: Kinome Profiling performed by Eurofins DiscoverX / AM-0277, 1.0 µM / POC

Chain of CLK4 (Q9HAZ1 whole entry): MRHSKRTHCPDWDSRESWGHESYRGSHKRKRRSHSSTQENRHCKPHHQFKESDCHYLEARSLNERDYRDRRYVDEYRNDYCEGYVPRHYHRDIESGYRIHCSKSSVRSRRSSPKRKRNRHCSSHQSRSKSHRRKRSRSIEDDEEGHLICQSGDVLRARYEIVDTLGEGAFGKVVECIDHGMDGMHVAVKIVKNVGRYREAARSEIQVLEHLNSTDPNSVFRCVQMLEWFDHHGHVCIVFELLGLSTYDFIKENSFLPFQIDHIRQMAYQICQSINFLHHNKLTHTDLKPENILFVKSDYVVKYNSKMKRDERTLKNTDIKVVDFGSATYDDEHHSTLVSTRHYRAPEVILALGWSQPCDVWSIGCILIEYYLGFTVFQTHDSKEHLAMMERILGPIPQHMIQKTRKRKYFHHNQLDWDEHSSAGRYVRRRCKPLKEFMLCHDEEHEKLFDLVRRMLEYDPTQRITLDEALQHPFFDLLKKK
Chain of DDR1 (Q08345 whole entry): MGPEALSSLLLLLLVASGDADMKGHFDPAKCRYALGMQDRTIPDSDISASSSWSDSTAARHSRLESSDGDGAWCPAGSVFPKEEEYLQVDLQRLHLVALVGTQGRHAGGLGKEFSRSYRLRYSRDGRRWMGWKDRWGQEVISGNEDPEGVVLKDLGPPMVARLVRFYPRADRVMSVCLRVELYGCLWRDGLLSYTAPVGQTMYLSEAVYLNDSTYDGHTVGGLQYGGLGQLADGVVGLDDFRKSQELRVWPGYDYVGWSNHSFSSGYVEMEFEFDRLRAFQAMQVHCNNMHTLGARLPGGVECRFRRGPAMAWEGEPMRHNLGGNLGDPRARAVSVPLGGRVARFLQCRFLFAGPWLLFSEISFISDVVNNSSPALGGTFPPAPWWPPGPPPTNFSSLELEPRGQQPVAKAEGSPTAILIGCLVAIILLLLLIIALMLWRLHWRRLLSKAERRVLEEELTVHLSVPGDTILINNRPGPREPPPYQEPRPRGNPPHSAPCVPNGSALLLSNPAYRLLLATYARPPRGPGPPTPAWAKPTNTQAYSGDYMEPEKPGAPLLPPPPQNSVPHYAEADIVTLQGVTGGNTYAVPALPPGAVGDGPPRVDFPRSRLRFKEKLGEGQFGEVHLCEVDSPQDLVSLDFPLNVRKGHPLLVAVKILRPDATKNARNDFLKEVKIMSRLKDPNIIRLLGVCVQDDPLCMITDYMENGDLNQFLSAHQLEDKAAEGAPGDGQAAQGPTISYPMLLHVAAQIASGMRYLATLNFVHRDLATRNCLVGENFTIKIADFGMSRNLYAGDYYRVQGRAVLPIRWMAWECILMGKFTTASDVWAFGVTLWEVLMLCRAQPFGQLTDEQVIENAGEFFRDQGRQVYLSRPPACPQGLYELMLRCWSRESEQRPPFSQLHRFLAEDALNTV
Chain of CAMK2D (Q13557 whole entry): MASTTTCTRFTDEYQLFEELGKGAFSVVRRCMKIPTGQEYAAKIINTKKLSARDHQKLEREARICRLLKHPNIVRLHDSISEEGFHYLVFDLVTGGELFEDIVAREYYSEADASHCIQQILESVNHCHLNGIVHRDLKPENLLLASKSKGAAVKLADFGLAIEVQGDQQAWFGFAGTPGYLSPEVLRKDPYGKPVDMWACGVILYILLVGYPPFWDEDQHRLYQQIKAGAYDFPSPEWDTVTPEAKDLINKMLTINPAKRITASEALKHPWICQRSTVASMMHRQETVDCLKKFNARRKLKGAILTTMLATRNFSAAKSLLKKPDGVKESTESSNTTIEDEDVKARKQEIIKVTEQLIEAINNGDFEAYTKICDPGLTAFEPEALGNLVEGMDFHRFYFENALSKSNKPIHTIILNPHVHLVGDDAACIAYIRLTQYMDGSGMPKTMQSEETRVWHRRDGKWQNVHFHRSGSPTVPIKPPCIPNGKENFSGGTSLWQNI
T1 sequence (Q16539 whole entry): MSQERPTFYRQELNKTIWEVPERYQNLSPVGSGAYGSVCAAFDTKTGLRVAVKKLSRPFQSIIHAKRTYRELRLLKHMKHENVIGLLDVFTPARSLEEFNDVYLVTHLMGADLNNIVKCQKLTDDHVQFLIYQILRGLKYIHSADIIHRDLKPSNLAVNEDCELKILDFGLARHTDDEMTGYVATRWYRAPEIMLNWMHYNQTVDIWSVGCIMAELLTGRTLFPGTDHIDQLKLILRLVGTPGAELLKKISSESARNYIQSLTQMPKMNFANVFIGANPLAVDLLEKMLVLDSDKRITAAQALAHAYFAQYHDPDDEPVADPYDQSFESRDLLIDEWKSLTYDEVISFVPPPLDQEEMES
Chain of MAPKAPK2 (P49137 whole entry): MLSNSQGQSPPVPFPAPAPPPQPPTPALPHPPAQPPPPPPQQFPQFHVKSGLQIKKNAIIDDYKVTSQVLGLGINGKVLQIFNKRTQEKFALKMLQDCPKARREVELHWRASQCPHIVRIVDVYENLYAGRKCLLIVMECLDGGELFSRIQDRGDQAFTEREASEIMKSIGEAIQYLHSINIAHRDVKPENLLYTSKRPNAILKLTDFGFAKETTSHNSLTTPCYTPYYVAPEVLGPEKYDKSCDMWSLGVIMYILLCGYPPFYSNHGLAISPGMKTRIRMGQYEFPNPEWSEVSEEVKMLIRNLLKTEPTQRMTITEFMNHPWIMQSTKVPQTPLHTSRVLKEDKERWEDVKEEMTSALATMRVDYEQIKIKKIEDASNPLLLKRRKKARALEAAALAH
Chain of HIPK1 (Q86Z02 whole entry): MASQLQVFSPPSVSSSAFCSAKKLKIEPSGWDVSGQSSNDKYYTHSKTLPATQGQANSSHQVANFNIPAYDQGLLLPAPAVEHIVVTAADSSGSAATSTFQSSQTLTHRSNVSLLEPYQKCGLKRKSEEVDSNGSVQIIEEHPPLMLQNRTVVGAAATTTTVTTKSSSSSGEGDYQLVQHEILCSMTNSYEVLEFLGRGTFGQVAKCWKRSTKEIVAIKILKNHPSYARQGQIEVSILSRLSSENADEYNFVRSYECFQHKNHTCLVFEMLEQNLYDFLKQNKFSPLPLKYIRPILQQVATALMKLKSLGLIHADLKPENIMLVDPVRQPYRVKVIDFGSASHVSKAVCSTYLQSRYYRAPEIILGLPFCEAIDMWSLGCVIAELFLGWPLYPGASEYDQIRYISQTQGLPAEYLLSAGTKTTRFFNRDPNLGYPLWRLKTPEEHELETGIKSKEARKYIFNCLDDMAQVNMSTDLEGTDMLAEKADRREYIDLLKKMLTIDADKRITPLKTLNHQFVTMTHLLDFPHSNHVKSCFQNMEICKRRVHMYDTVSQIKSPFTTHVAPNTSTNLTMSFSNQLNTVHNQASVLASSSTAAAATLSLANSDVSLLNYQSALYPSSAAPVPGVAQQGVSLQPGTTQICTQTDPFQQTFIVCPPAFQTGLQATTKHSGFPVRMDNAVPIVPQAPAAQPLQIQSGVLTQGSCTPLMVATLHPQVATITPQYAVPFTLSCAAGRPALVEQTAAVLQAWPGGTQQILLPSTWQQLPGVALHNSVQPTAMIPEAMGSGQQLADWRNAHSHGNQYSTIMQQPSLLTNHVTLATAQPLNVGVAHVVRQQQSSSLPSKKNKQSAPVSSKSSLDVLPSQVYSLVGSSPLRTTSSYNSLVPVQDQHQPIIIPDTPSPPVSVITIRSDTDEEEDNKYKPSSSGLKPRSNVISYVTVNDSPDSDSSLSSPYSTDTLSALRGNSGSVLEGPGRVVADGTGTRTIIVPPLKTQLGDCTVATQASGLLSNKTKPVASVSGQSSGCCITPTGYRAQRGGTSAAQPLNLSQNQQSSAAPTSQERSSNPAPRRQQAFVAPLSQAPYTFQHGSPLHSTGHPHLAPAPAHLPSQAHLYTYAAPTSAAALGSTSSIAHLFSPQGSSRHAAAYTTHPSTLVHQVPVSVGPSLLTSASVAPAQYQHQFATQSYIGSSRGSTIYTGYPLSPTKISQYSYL
T3 sequence (P29597 whole entry): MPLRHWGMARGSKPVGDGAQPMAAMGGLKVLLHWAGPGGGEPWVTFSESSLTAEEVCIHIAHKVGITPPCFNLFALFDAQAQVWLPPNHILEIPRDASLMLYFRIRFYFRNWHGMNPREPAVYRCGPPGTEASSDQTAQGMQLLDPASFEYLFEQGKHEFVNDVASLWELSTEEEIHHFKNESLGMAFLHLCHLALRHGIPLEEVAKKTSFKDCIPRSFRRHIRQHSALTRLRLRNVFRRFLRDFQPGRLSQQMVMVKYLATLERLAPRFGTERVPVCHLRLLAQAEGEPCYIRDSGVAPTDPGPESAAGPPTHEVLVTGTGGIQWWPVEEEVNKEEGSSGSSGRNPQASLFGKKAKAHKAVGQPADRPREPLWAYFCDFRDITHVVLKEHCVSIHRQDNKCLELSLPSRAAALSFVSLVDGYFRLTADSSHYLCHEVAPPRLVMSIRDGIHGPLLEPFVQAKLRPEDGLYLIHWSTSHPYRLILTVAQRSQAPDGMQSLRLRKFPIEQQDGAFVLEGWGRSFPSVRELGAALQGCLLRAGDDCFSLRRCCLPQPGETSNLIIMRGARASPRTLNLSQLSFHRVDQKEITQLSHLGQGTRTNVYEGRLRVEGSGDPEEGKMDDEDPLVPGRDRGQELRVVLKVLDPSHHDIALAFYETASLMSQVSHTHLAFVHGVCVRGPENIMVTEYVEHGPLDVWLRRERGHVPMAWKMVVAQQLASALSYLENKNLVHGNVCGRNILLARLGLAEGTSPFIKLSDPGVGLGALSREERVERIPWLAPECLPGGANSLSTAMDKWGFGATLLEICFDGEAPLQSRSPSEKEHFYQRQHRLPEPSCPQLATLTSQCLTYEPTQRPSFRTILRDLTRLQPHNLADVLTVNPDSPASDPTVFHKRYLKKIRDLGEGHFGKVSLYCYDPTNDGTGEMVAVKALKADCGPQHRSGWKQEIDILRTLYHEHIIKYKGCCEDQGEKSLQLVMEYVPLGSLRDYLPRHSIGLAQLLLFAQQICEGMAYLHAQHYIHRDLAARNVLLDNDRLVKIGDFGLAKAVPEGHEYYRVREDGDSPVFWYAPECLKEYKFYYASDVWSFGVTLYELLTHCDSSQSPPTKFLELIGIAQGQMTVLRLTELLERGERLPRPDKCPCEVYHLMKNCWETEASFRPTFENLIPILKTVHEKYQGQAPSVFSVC

- remaining activity at 1 µM [1, 9]: 100%
- remaining activity at 1 µM [2, 9]: 100%
- remaining activity at 1 µM [3, 9]: 100%
- remaining activity at 1 µM [4, 9]: 100%
- remaining activity at 1 µM [5, 9]: 73%
- remaining activity at 1 µM [6, 9]: 97%
- remaining activity at 1 µM [7, 9]: 95.5%
- remaining activity at 1 µM [8, 9]: 100%
SMILES: CC(C)(C)NS(=O)(=O)c1cccc(NC(=O)c2ccc(S(=O)(=O)NC(C)(C)C)cc2N2CCC3(CC2)CC3)c1 [AM-1882]

- remaining activity at 1 µM [1, 10]: 58.5%
- remaining activity at 1 µM [2, 10]: 89.5%
- remaining activity at 1 µM [3, 10]: 100%
- remaining activity at 1 µM [4, 10]: 100%
- remaining activity at 1 µM [5, 10]: 100%
- remaining activity at 1 µM [6, 10]: 100%
- remaining activity at 1 µM [7, 10]: 95%
- remaining activity at 1 µM [8, 10]: 84%
SMILES: C[C@@H]1CN(c2cccc(NC(=O)c3ccc(NS(=O)(=O)CCO)cc3N3CCC4(CC3)CC4)n2)CCO1 [AM-5308]

- remaining activity at 1 µM [1, 11]: 91%
- remaining activity at 1 µM [2, 11]: 100%
- remaining activity at 1 µM [3, 11]: 100%
- remaining activity at 1 µM [4, 11]: 97%
- remaining activity at 1 µM [5, 11]: 61%
- remaining activity at 1 µM [6, 11]: 95%
- remaining activity at 1 µM [7, 11]: 79%
- remaining activity at 1 µM [8, 11]: 100%
SMILES: CC(C)(CO)Nc1ccc(C(=O)Nc2cccc(S(=O)(=O)C3CCCC3)c2)c(N2CCC3(CC2)CC3)n1 [AM-0277]
